# Measured values published in patent US20260053861A1, “CELL COMPOSITIONS AND METHODS OF USING THE SAME” (THE REGENTS OF THE UNIVERSITY OF CALIFORNIA, priority 2022, published 2026).
# Structures can show the parent of a compound that is named as a salt. Residues, ends and D or L forms follow the SMILES beside them.
# System: hPSC-SCs
# Details: not given
row,Structure (SMILES),z.score.t
1,CN(C)CCC=C1c2ccccc2CCc2ccccc21.Cl [Amitryptiline hydrochloride],−0.7142
2,CCCc1ncc(C[n+]2ccccc2C)c(N)n1 [Amprolium hydrochloride],−1.615
3,c1cncc([C@@H]2CCCCN2)c1 [Anabasine],−0.1239
4,C[C@]12CC[C@@H](O)C[C@@H]1CC[C@@H]1[C@@H]2CC[C@]2(C)C(=O)CC[C@@H]12 [Androsterone],−1.265
5,COc1ccc(C[C@H]2NC[C@H](O)[C@H]2OC(C)=O)cc1 [Anisomycin],−2.056
6,Cc1cc(=O)n(-c2ccccc2)n1C [Antipyrine],−0.2131
7,COC(=O)C1=CCCN(C)C1 [Arecoline hydrobromide],−0.7049
8,C=C1[C@@H]2CC[C@H]3[C@]4(C)C[C@H](O[C@@H]5O[C@H](CO)[C@@H](OS(=O)(=O)O)[C@H](OS(=O)(=O)O)[C@H]5OC(=O)CC(C)C)C[C@@H](C(=O)O)[C@H]4CC[C@]3(C2)[C@@H]1O [Atractyloside potassium salt],−0.7376
9,CN1[C@@H]2CC[C@H]1C[C@@H](OC(=O)C(CO)c1ccccc1)C2 (stereo partly drawn) [Atropine sulfate monohydrate],−0.9654
10,CC1=CC(=O)C2=C(C)C[C@H](O)[C@@H]3[C@H](OC(=O)[C@H]3C)[C@H]12 [Austricine hydrate],−0.411
11,OC(c1ccccc1)(c1ccccc1)C1CCNCC1 [Azacyclonol],0.5179
12,"Cc1n[nH]c(=O)[nH]c1=O [Azathymine, 6]",−0.5337
13,CCC1(C)CC(=O)NC(=O)C1 [Bemegride],0.3241
14,CC(C)(C)CC(C)(C)c1ccc(OCCOCC[N+](C)(C)Cc2ccccc2)cc1 [Benzethonium chloride],−1.091
15,CC[C@H](CC[C@@H](C)[C@H]1CC[C@H]2[C@@H]3CC=C4C[C@@H](O)CC[C@]4(C)[C@H]3CC[C@]12C)C(C)C [Beta-sistosterol],0.1543

# Same assay, conditions: HTS viability of hPSC-SCs in the presence of 30 mM glucose; Prestwick library; Table S4
row,Structure (SMILES),z.score.t
1,"c1ccc(CNc2ncnc3[nH]cnc23)cc1 [Aminopurine, 6-benzyl]",0.3206
2,CCCCc1oc2ccccc2c1C(=O)c1cc(I)c(OCCN(CC)CC)c(I)c1 [Amiodarone hydrochloride],−1.609
3,CN(C)CCCO[C@@H]1[C@H]2OC(C)(C)O[C@H]2O[C@@H]1[C@H](O)CO [Amiprilose hydrochloride],1.178
4,CCN(CC)Cc1cc(Nc2ccnc3cc(Cl)ccc23)ccc1O [Amodiaquin dihydrochloride dihydrate],−1.767
5,Clc1ccc2c(c1)C(N1CCNCC1)=Nc1ccccc1O2 [Amoxapine],−0.09426
6,CC1(C)S[C@@H]2[C@H](NC(=O)[C@H](N)c3ccc(O)cc3)C(=O)N2[C@H]1C(=O)O [Amoxicillin],1.457
7,C[C@@H]1[C@H](O)[C@@H](C)/C=C/C=C/C=C/C=C/C=C/C=C/C=C/[C@H](O[C@@H]2O[C@H](C)[C@@H](O)[C@H](N)[C@@H]2O)C[C@@H]2O[C@](O)(C[C@@H](O)C[C@@H](O)[C@H](O)CC[C@@H](O)C[C@@H](O)CC(=O)O[C@H]1C)C[C@H](O)[C@H]2C(=O)O [Amphotericin B],0.7312
8,CC1(C)S[C@@H]2[C@H](NC(=O)[C@H](N)c3ccccc3)C(=O)N2[C@H]1C(=O)O [Ampicillin trihydrate],1.287
9,Cc1c(N)c(=O)n(-c2ccccc2)n1C [Ampyrone],0.4205
10,Nc1cc(-c2ccncc2)c[nH]c1=O [Amrinone],−1.025
11,c1ccc(CN(CC2=NCCN2)c2ccccc2)cc1 [Antazoline hydrochloride],−0.004573
12,"Cc1c(O)c(=O)n(-c2ccccc2)n1C [Antipyrine, 4-hydroxy]",0.04029
13,O=c1cc(-c2ccc(O)cc2)oc2cc(O)cc(O)c12 [Apigenin],−0.2904
14,CN[C@@H]1[C@@H](O[C@H]2O[C@H](CO)[C@@H](N)[C@H](O)[C@H]2O)OC2C[C@@H](N)[C@@H](O[C@H]3[C@H](O)[C@@H](O)[C@H](N)C[C@@H]3N)OC2[C@@H]1O (stereo partly drawn) [Apramycin],0.1828
15,OC[C@H]1O[C@@H](Oc2ccc(O)cc2)[C@H](O)[C@@H](O)[C@@H]1O [Arbutin],−0.2611
16,NC(N)=NCCCCN=C(N)N [Arcaine sulfate],−0.7567
17,C[C@@H]1CC[C@H]2[C@@H](C)C(=O)O[C@@H]3O[C@@]4(C)CC[C@@H]1[C@]32OO4 [Artemisinin],−0.5919
18,CCCNC(C)C(=O)Nc1c(C)csc1C(=O)OC (stereo not drawn) [Articaine hydrochloride],0.8481
19,O=C1O[C@H]([C@@H](O)CO)C(O)=C1O [Ascorbic acid],−0.7233
20,COc1ccc(CCN2CCC(Nc3nc4ccccc4n3Cc3ccc(F)cc3)CC2)cc1 [Astemizole],−1.866
21,O=C1C(O)=C([C@H]2CC[C@H](c3ccc(Cl)cc3)CC2)C(=O)c2ccccc21 [Atovaquone],−1.62
22,COc1ccc(CC2c3cc(OC)c(OC)cc3CC[N+]2(C)CCC(=O)OCCCCCOC(=O)CC[N+]2(C)CCc3cc(OC)c(OC)cc3C2Cc2ccc(OC)c(OC)c2)cc1OC (stereo not drawn) [Atracurium besylate],0.5041
23,Nc1ncn([C@@H]2O[C@H](CO)[C@@H](O)[C@H]2O)c(=O)n1 [Azacytidine-5],−2.144
24,Nc1nc(O)c2[nH]nnc2n1 [Azaguanine-8],−1.365
25,O=C(CCCN1CCN(c2ccccn2)CC1)c1ccc(F)cc1 [Azaperone],−0.9039
26,CCCC1C(=O)N2C(N(C)C)=Nc3ccc(C)cc3N2C1=O (stereo not drawn) [Azapropazone],1.176
27,Cn1cnc([N+](=O)[O-])c1Sc1ncnc2nc[nH]c12 [Azathioprine],0.4486

row,Structure (SMILES),z.score.t
1,CC1(C)S[C@@H]2[C@H](NC(=O)[C@H](NC(=O)N3CCNC3=O)c3ccccc3)C(=O)N2[C@H]1C(=O)O [Azlocillin sodium salt],1.635
2,C[C@H]1[C@H](NC(=O)/C(=N\OC(C)(C)C(=O)O)c2csc(N)n2)C(=O)N1S(=O)(=O)O [Aztreonam],1.36
3,CCOC(=O)OC(C)OC(=O)[C@@H]1N2C(=O)[C@@H](NC(=O)[C@H](N)c3ccccc3)[C@H]2SC1(C)C (stereo partly drawn) [Bacampicillin hydrochloride],0.3231
4,"CC[C@H](C)[C@H](N)C1=N[C@H](C(=O)N[C@@H](CC(C)C)C(=O)N[C@H](CCC(=O)O)C(=O)N[C@H](C(=O)N[C@H]2CCCCNC(=O)[C@H](CC(N)=O)NC(=O)[C@@H](CC(=O)O)NC(=O)[C@H](Cc3cnc[nH]3)NC(=O)[C@@H](Cc3ccccc3)NC(=O)[C@H]([C@@H](C)CC)NC(=O)[C@@H](CCCN)NC2=O)[C@@H](C)CC)CS1 [Bacitracin] (HELM PEPTIDE1{[CC[C@H](C)[C@H](N)C1=N[C@H](C(=O)[*:2])CS1].L.[dE].I.K.[NCCC[C@@H](N[*:1])C(=O)[*:2]].I.[dF].H.[dD].N}$PEPTIDE1,PEPTIDE1,5:R3-11:R2$$$V2.0)",1.163
5,O=C(O)CCNC(=O)c1ccc(/N=N/c2ccc(O)c(C(=O)O)c2)cc1 [Balsalazide Sodium],0.7914
6,CN(C)C(=O)Oc1cc(OC(=O)N(C)C)cc(C(O)CNC(C)(C)C)c1 (stereo not drawn) [Bambuterol hydrochloride],−0.5919
7,CCC(=O)OCC(=O)[C@@]1(OC(=O)CC)[C@@H](C)C[C@H]2[C@@H]3CCC4=CC(=O)C=C[C@]4(C)[C@@]3(Cl)[C@@H](O)C[C@@]21C [Beclomethasone dipropionate],−0.2136
8,NS(=O)(=O)c1cc2c(cc1C(F)(F)F)NC(Cc1ccccc1)NS2(=O)=O (stereo not drawn) [Bendroflumethiazide],−1.107
9,CC(Cc1cccc(C(F)(F)F)c1)NCCOC(=O)c1ccccc1 (stereo not drawn) [Benfluorex hydrochloride],1.095
10,C/C(=C(\CCOP(=O)(O)O)SC(=O)c1ccccc1)N(C=O)Cc1cnc(C)nc1N [Benfotiamine],−0.1239
11,CCCCOc1cc(C(=O)OCCN(CC)CC)ccc1N [Benoxinate hydrochloride],0.05523
12,O=C(CCCN1CCC(n2c(O)nc3ccccc32)CC1)c1ccc(F)cc1 [Benperidol],0.1556
13,NC(CO)C(=O)NNCc1ccc(O)c(O)c1O (stereo not drawn) [Benserazide hydrochloride],−0.2359
14,NC(=NCc1ccccc1)NC(=O)c1nc(Cl)c(N)nc1N [Benzamil hydrochloride],−1.515
15,CC1(C)S[C@@H]2[C@H](NC(=O)Cc3ccccc3)C(=O)N2[C@H]1C(=O)O.CC1(C)S[C@@H]2[C@H](NC(=O)Cc3ccccc3)C(=O)N2[C@H]1C(=O)O.c1ccc(CNCCNCc2ccccc2)cc1 [Benzathine benzylpenicillin],−0.08998
16,CCOC(=O)c1ccc(N)cc1 [Benzocaine],−0.8317
17,CCCCNc1ccc(C(=O)OCCOCCOCCOCCOCCOCCOCCOCCOCCOC)cc1 [Benzonatate],0.6386
18,NS(=O)(=O)c1cc2c(cc1Cl)N=C(CSCc1ccccc1)NS2(=O)=O [Benzthiazide],0.3022
19,CN(C)CCCOc1nn(Cc2ccccc2)c2ccccc12 [Benzydamine hydrochloride],−1.272
20,CC1(C)S[C@@H]2[C@H](NC(=O)Cc3ccccc3)C(=O)N2[C@H]1C(=O)O [Benzylpenicillin sodium],−1.3
21,C[N+](C)(CCOc1ccccc1)Cc1ccccc1.O=C([O-])c1cc2ccccc2cc1O [Bephenium hydroxynaphthoate],0.5158
22,CC(C)COCC(CN(Cc1ccccc1)c1ccccc1)N1CCCC1 (stereo not drawn) [Bepridil hydrochloride],−0.5726
23,COc1ccc2cc3[n+](cc2c1OC)CCc1cc2c(cc1-3)OCO2 [Berberine chloride],1.018
24,COc1c(O)cc2c(c1O)[C@@H]1O[C@H](CO)[C@@H](O)[C@H](O)[C@H]1OC2=O [Bergenin monohydrate],1.238
25,CNCCc1ccccn1.CS(=O)(=O)O.CS(=O)(=O)O [Betahistine mesylate],−0.6301
26,C[C@H]1C[C@H]2[C@@H]3CCC4=CC(=O)C=C[C@]4(C)[C@@]3(F)[C@@H](O)C[C@]2(C)[C@@]1(O)C(=O)CO [Betamethasone],0.8711
27,CC(C)NCC(O)COc1ccc(CCOCC2CC2)cc1 (stereo not drawn) [Betaxolol hydrochloride],−0.5337
